Read-outs that look alike come from different tables or passages of the source. Ends that are not written are not given here.

The source of these data is patent US10617736B2, “Method for modulating insulin-independent glucose transport using teneurin C-terminal associated peptide (TCAP)” (priority 2014, dated 2020).

Holding throughout (format): in vivo, rat
The subject of one data set is male GK Wistar rats. Kind of data set: Haematology assays in Goto-Kakizaki rats. As for the experimental part:
(§1) Whole blood samples were collected into plastic microcentrifuge tubes with EDTA-coated capillary tubes. A minimum sample volume of 20 μL was required for the analyses by the Toronto Centre for Phenogenomics (Mount Sinai Hospital, Toronto) using the Hemavet 950Fs Hematology Analyzer. From the whole blood samples, serum was separated from the cells and fibrin by centrifuging the collection tubes for five minutes at 7000 g at 25° C. Afterwards, immediately following collection of serum, the samples were stored and maintained at a freezing temperature of −80° C.
(§2) Haematology assays were performed on physiological normal rat serum and from Type II Diabetic GK rats obtained at the end of the in vivo studies noted herein in which TCAP-1 was administered to the normal rats and plasma glucose levels were monitored over the course of 1-2 weeks. […] Results are illustrated in FIGS. 6A to 6L.

Data set [1] can be described thus: Uptake and clearance of TCAP-1 in plasma after IV or SC injection (TCAP ELISA). Particulars: for half-life: rat, in vivo. As for the experimental part:
Male Wistar rats weighing 400-450 g were obtained from Charles River Laboratories (Montreal, Canada). Rats were singly-housed in standard Plexiglas shoebox cages under standard laboratory conditions, (12 h light:dark cycle, lights on at 0700) with food and water available ad libitum. Testing took place between 0900 and 1200 hours. Rats were given one week to acclimatize to the laboratory before surgery. Rats were anesthetized with isoflurane (2-3% in 100% O2) and a catheter was implanted into the jugular vein.
The K37 biotinylated TCAP was diluted into 200 ul physiological saline to contain 10.5 ug for 5 nM/kg dose and 52.5 ug for 25 nM/kg dose. The rats weighed 400-450 g. 200 ul of peptide containing solution was delivered through the cannula, different syringe containing saline was connected and 200 ul of saline was delivered to push the peptide into the bloodstream. The third syringe containing the heparin solution was used to fill the line with the lock, 150-200 ul. After 5 min, the lock solution was aspirated into the syringe, and also about 150 ul of the blood were aspirated and disposed off in case of the local contamination with high peptide concentrations. 200 ul of the blood was sampled in a fresh syringe, line flushed with saline first (200 ul) and heparin saline next (150-200 ul).
(§3) Rats were gently restrained, cannula clamped and unplugged, 1 ml syringe with blunt needle attached to the end of the polyethylene 50 line and the lock solution containing heparin 50-100 U/ml was removed. The line was clamped and a new syringe with a blunt needle attached for withdrawing about 200 ul blood. The line was clamped and syringe removed to recover the blood. This blood sample was used to determine a baseline level of activity. All blood samples were incubated at a room temperature for 10-20 min and centrifuged at 3000 rpm for 5 min to recover the serum. The serum was frozen on dry ice and kept at −80° C. until the assay.
as §3, with “K37 TCAP was biotin labeled according to the biotinylation method above. Rats” for “Rats”
For IV administration, rats were gently restrained during the injection procedure. The IV cannula was unplugged and the lock solution (150-200 μl of 50-100 U/ml of heparin, Sigma Scientific) was removed. To obtain a baseline level of activity, 200 μl of blood was withdrawn prior to injection. 200 μl of TCAP-containing solution was delivered through the cannula, followed by 200 μl of saline to push the TCAP solution through the cannula. 150-200 μl of lock solution was injected to fill the catheter. For subcutaneous (SC) administration, rats were gently restrained and injected under the skin with 200 μl of TCAP-1-containing solution with a 23 gauge needle
Blood samples were obtained from the jugular catheter. Rats were gently restrained, and the IV cannula was unplugged. The lock solution was aspirated along with 150 μl of blood. This mixture was discarded in case of local contamination with high peptide concentrations. A sample of200 μl of blood was obtained in a fresh syringe. The catheter was then flushed with 200 μl of saline and then filled with 150-200 μl of lock solution. Lateral tail vein blood samples were obtained from lightly restrained rats whereby 200 μl of blood was obtained using a 23-gauge needle. A final bleed was achieved via cardiac puncture. […]
In general terms: An ELISA detects its analyte on a solid surface through an enzyme-linked reagent.

The next data set concerns male Wistar rats. Kind of data set: Haematology assays in normal Wistar rats. Here is the method: as §1, §2

On to “QQLLGTGRVQGYDGYFVLSVEQYLELSDSANNIHFMRQSEI-NH2 (C-terminus assumed) [TCAP-1]”, for which the haemoglobin concentrations entry in the data set with male GK Wistar rats (10 nmole/kg (FIG. 6G)) is reported as “No significant results were observed”; with male Wistar rats (Wistar rats, 1 or 10 nmole/kg (FIG. 6A)) it was “No significant results were observed”. The hematocrit counts result in the data set with male GK Wistar rats (10 nmole/kg (FIG. 6H)) is given as “No significant results were observed”; in the data set on male Wistar rats (Wistar rats, 1 or 10 nmole/kg (FIG. 6B)) it was “No significant results were observed”. Also, the platelet counts entry in the data set on male GK Wistar rats (10 nmole/kg (FIG. 6I)) was “No significant results were observed”; with male Wistar rats (Wistar rats, 1 or 10 nmole/kg (FIG. 6C)), “No significant results were observed”. In addition, the “red blood cell counts” value in the data set on male GK Wistar rats (10 nmole/kg (FIG. 6J)) is given as “No significant results were observed”; in the data set on male Wistar rats (Wistar rats, 1 or 10 nmole/kg (FIG. 6D)), “No significant results were observed”. Moreover, the “levels of white blood cells, neutrophils or lymphocytes” value was “No significant results were observed” with male GK Wistar rats (10 nmole/kg (FIG. 6K)) and “No significant results were observed” in the data set on male Wistar rats (Wistar rats, 1 or 10 nmole/kg (FIG. 6E)). Besides, the “monocytes, basophils or eosinophils” value is on record as “No significant results were observed” with male GK Wistar rats (10 nmole/kg (FIG. 6L)) and “No significant results were observed” with male Wistar rats (Wistar rats, 1 or 10 nmole/kg (FIG. 6F)). In addition, the “white blood cells, neutrophils and lymphocytes, trend” value in the data set on male GK Wistar rats (results called variable and inconclusive) is “appears to be a decrease in white blood cells, neutrophils and lymphocytes”. The “time of peak in plasma” value in data set [1] (IV administered, rat plasma) is given as at most 1 min. Besides, the “time until cleared from plasma” value in data set [1] (IV-treated animals) was “about 100 min”; in data set [1] (SC treated animals, highest dose of 125 ng/kg), “about 170 min”. The “time to 50% loss from plasma” value in data set [1] (SC administered, rat plasma) is reported as “about 90 min”. The half-life (commonly the time needed for the level to fall by half in the phase considered) in data set [1] (iv, highest dose, read-out: plasma clearance half-life) stood at 16 ± 4 min; in data set [1] (iv, lowest dose, read-out: plasma clearance half-life), 4 ± 1 min; in data set [1] (iv, mid dose, read-out: plasma clearance half-life), 7 ± 2 min; in data set [1] (sc, highest dose, read-out: clearance time (plasma clearance half-life)), 36 ± 20 min; in data set [1] (sc, lowest dose, read-out: clearance time (plasma clearance half-life)), 40 ± 4 min; in data set [1] (sc, mid dose, read-out: clearance time (plasma clearance half-life)), 50 ± 11 min. In addition, in the data set with male Wistar rats (observation on collected blood samples), the “clot formation in blood samples” value was “clots formed more frequently in the blood samples of TCAP-1 treated rats”.
